Test system: Cath.a cells
Assay: TRPV1-induced calcium-mediated cell death (Trypan Blue positivity)
Type: cell-based
Experimental: We therefore studied susceptibility of HEK wild type cells, TRPV1 overexpressing HEK cells, and Cath.a cells to TRPV1-induced calcium-mediated cell death.
Cells were plated into tissue culture dishes and treated with either vehicle (HEK wild type and Cath.a) or tetracycline (1 micromolar) for 16 h to induce TRPV1 expression (HEK-TRPV1) at 37° C. in a […] atmosphere. After washing, media were replaced with a modified sodium Ringer solution containing 3% FBS and either 10 millimolar CaCl2 or zero added CaCl2 and 1 millimolar EGTA. […] After 2 minutes, aliquots of 7 microliters of cell suspension were counted in a hemocytometer and field of at least 200 cells were scored for Trypan Blue positive or negative status.

COc1cc(CNC(=O)CCCC/C=C/C(C)C)ccc1O [capsaicin]
cell death (trypan blue positivity) in Cath.a cells (10 mM external CaCl2, 80 min after stimulation with 250 nM capsaicin): can induce cell death | cell death (percent trypan blue positive cells) in Cath.a cells in the absence of external calcium (no external calcium, 80 min after stimulation with 250 nM capsaicin): dependent upon the presence of external calcium
